Experimental data reported in US12268665B2, “Combination of immunotherapies with MDM2 inhibitors” (ASCENTAGE PHARMA (SUZHOU) CO., LTD., priority 2018, dated 2025).
Read-outs that look alike come from different tables or passages of the source.

Legend:
[1] = test system: MH-22A murine hepatoma syngeneic model; test: In vivo efficacy study in MH-22A model; design: species or system mouse
Experimental: Tumor volumes were measured twice weekly in two dimensions using a caliper, and the volume was expressed in mm^3 using the formula: Tumor Volume(mm^3)=0.5a×b^2 where a and b are the long and short diameters of the tumor, respectively.
Relative tumor volume (RTV) was calculated using the following formula: RTV=Vt/V1 Where V1 and Vt are the average tumor volumes on the first day of treatment (day 1) and the average tumor volumes on a certain time point (day t).
Synergy score was calculated using the following formula (Clarke R, Breast Cancer Research & Treatment, 1997, 46(2-3):255-278): Synergy score=((A/C)×(B/C))/(AB/C); A: response to treatment A; B: response to treatment B; C: response to vehicle control; AB: combination of treatment A and B.
Standard NCI procedures were used to calculate tumor parameters. Percent tumor growth inhibition (% T/C) was calculated as the mean RTV of treated tumors (T) divided by the mean RTV of control tumors (C)×100%. The percentage T/C value is an indication of antitumor effectiveness: a value of T/C<42% is considered significant antitumor activity by the NCI. A T/C value <10% is considered to indicate highly significant antitumor activity, and is the level used by the NCI to justify a clinical trial if toxicity and certain other requirements are met (termed DN-2 level activity). A body weight loss nadir (mean of group) of greater than 20%, or greater than 20% of drug deaths are considered to indicate an excessively toxic dosage.
(§1) Each mouse was inoculated subcutaneously at the right flank region with MH-22A tumor cells (5×10^6) in 0.2 mL of PBS for tumor development. The treatments were initiated when the mean tumor size reached ˜65 mm^3. The test articles were administered to the tumor-bearing mice according to the regimen shown in the experimental design Table 3. The day of start dosing was defined as d1.

[2] = test system: MH-22A syngeneic tumor model; test: Efficacy in the TIL analysis study, MH-22A model (d7); format: in vivo, mouse; conditions: APG-115 10 mg/kg p.o. q2d; anti-PD-1 5 mg/kg i.p. biw; epacadostat 100 mg/kg p.o. bid; × 6 d
Experimental: as §1, with “were started” for “were initiated”, “reached 60” for “reached ˜65”, “Table 6.” for “Table 3.”
Mice bearing MH-22A murine hepatoma tumors were treated with various agent(s) under different regimens as indicated. Isotype control antibody was included in the control.

[3] = Pharmacokinetic (PK) analysis in MH-22A tumor-bearing mice (LC/MS/MS); format: in vivo, mouse; conditions: mouse; for concentration at 4 h: oral, 100 mg/kg
Experimental: The quantitative LC/MS/MS analysis was conducted using an Exion HPLC system (AB Sciex, Ontario, Canada) coupled to an API 5500 mass spectrometer (AB Sciex, Ontario, Canada) equipped with an API electrospray ionization (ESI) source. The Phenomenex Titank phenyl-Hexyl column (50 mm×2.1 mm, 5 μm particle size) was used to achieved HPLC separation. The injection volume was 2 μl and the flow rate was kept constantly at 0.5 ml/min. Chromatography was performed with mobile phase A, acetonitrile:water:formic (5:95:0.1, by volume) and B, acetonitrile:water:formic (95:5:0.1, by volume). The mass spectrometer was operated at ESI positive ion mode for APG-115 while ESI negative mode for epacadostat. The detection of the ions was performed in the multiple reaction monitoring (MRM) mode, monitoring the transition of m/z 642.0→246.1 and 271.1→172.0 for APG-115 and IS (tolbutamide) in positive mode, 435.9→338.8 and 269.2→169.2 for epacadostat and IS (tolbutamide) in negative mode, respectively. Compounds parameters, declustering potential (DP), collision energy (CE) were 51, 61 V, 80, 18 V for APG-115 and IS in positive mode, −61, −15 V and −90, −23.5 V for epacadostat and IS in negative mode, respectively.
Blood and tumor samples were collected from 5 mice/group in group-1, group-2, group-3 and group-5 4 hrs after the final dose on […]. Blood samples were collected from 5 mice/group in group-4, group-6, group-7 and group-8 4 hrs after the final dose on d29. Approximately 100 μl blood were collected in EDTA-2K tube and 50 μl plasma were collected for PK analysis. All samples were stored at −80° C. until analysis.
In efficacy study of Example 2.1, mice in vehicle, APG-115 10 mg/kg and 50 mg/kg, and epacadostat single-agent groups were euthanized on d15 as described above. To assess PK characteristics of APG-115 and epacadostat in this study, plasma and tissue samples were collected 4 h after the last dosing on d15.

[4] = APG-115 10 mg/kg p.o. qd, anti-PD-1 10 mg/kg i.p. biw, epacadostat 100 mg/kg p.o. bid

In the case of `NS(=O)(=O)NCCNc1nonc1C(=NO)Nc1ccc(F)c(Br)c1` [epacadostat, reference compound], the “RTV (Mean ± SEM) d15” value [1, 4] is reported as 49.1 ± 5.8, the “T/C (%) d15” value [1, 4] is reported as 128% and the “Response rate (%) d15” value ([1]; APG-115 10 mg/kg, anti-PD-1 10 mg/kg, epacadostat 100 mg/kg, n=10) is reported as 0%. The “antitumor activity as single agents” value ([1]; APG-115 10 and 50 mg/kg, epacadostat 100 mg/kg) was “did not exert antitumor activity”, the “RTV (Mean) d7” value [2] was 12.7 and the “T/C (%) d7” value [2] was 82%. The “pharmacokinetic interaction with anti-PD-1 antibody” value ([3]; in vivo) was “no apparent pharmacokinetic interaction”, the concentration at 4 h ([3]; plasma, 100 mg/kg daily oral, alone, read-out: plasma concentration of epacadostat) was 5890 ng/mL and the concentration at 4 h ([3]; plasma, 100 mg/kg daily oral, combined with anti-PD-1, read-out: plasma concentration of epacadostat) was 8620 ng/mL. It also gave a concentration at 4 h ([3]; tumor, 100 mg/kg dosed alone, read-out: epacadostat concentration in tumor) of 9260 ng/g.
